This is an account of results in US5985824A, “Methods and compositions for treating cystic fibrosis” (priority 1997, dated 1999).

Assay [1] relates to ΔF508-CFTR (C127-ΔF508-low cells). The experiment in a line: SPQ halide efflux assay, cAMP-stimulated Cl- channel activity, C127-ΔF508-low cells. In kind it is cell-based. The procedure:
(§1) The cAMP-dependent CFTR Cl^- channel activity was assessed using the halide-sensitive fluorophore 6-methoxy-N-(3-sulfopropyl)-quinolinium (SPQ) essentially as described previously (Cheng et al., (1995), supra.; Marshall et al., supra.). Briefly, the cells were treated with different amounts of DSG for the times specified. At the end of the treatment period, the cells were loaded with SPQ by hypotonic shock for 4 min at room temperature. SPQ fluorescence initially was quenched by incubating the cells for up to 30 min in a NaI buffer (135 mM NaI, 2.4 mM K2 HPO4, 0.6 mM KH2 PO4, 1 mM MgSO4, 1 mM CaSO4, 10 mM dextrose, and 10 mM N-2 hydroxyethylpiperazine-N'2-ethanesulfonic acid, pH 7.4). After measuring the baseline fluorescence (Fo) for 2 min., the NaI solution was replaced with one containing 135 mM NaNO3, and fluorescence was measured for another 16 min. Forskolin (20 μM) and 3-isobutyl-1-methyl-xanthine (IBMX) (100 μM) were added 5 min after the anion substitution to increase intracellular levels of cAMP.
An increase in halide permeability is reflected by a more rapid increase in SPQ fluorescence. It is the rate of change rather than the absolute change in signal that is the important variable in evaluating anion permeability. Differences in absolute levels reflect quantitative differences between groups in SPQ loading, size of cells, or number of cells studied. The data are presented as means± SE of fluorescence at time t (Ft) minus the baseline fluorescence (Fo, the average fluorescence measured in the presence of I^- for 2 min. before ion substitution) and are representative of results obtained under each condition.
For each experiment, between 50 to 100 cells were examined on a given day and studies under each condition were repeated on at least two days. For each experiment, the responses were compared with those obtained with control or untreated cells. […] Under the conditions specified above, control cells were unresponsive to added cAMP agonists. There was a broad spectrum in the rate of change in SPQ fluorescence observed with responsive cells. Normally, cells were scored as responsive if they generated a minimum of a […] change in the rate of increase in SPQ fluorescence following stimulation with cAMP agonists. Because the response was heterogenous, the data shown are for the 10% of cells in each experiment showing the greatest response.
A bovine-papilloma virus based eukaryotic expression vector (pBPV-CFTR-ΔF508) containing the gene for ΔF508 CFTR and neomycin resistance were transfected into C127 cells. The C127 cells are murine mammary cells which were obtained from ATCC (#CRL 1616). The expression of the mutant ΔF508 protein and neomycin was driven using a metallothionein promoter. Following transfection, clonal cells resistant to G418 were isolated and cells expressing the mutant ΔF508 protein were subsequently identified using antibodies specific for CFTR (mAb-13-1). The cells expressing the mutant ΔF508 CFTR protein were maintained in Dulbecco's modified eagle media (DMEM) supplemented with glutamine and fetal calf serum.
C127-ΔF508-low (mouse mammary tumor) is a recombinant cell line stably transfected with the cDNA encoding the mutant ΔF508-CFTR (Cheng et al. (1995), supra.; Marshall et al. (1994), J. Biol. Chem. 269: 2987-2995). […] C127-mock is a cell line that has been stably transfected with the backbone of the expression vector used to generate C127-ΔF508-low (Cheng et al. (1995), supra.). LLCPK1 -ΔF508 (pig kidney epithelial) is a recombinant cell line stably expressing low levels of the mutant ΔF508-CFTR protein (Marshall et al., supra.). The details of the generation, characterization and routine propagation of these cell lines has been described (Cheng et al. (1995), supra.; Marshall et al., supra.).
Cells were treated with up to 100 μg/ml of DSG for up to 72 h. Concentrations of DSG >50 μg/ml were toxic to most of the cell types tested. […]

For a further assay, the system named is ΔF508-CFTR (CFT1 cells). The experiment in a line: SPQ assay, cAMP-stimulated Cl- channel activity, CFT1 cells. In kind it is cell-based, human. Here is the method: as §1, with “Forskolin (20 μM) and 3-isobutyl-1-methyl-xanthine (IBMX) (100 μM) were added 5 min after the anion substitution to increase intracellular levels of cAMP.” left out
(§2) An increase in halide permeability is reflected by a more rapid increase in SPQ fluorescence. […] Differences in absolute levels reflect quantitative differences between groups in SPQ loading, size of cells, or number of cells studied. The data are presented as means± SE of fluorescence at time t (Ft) minus the baseline fluorescence (Fo, the average fluorescence measured in the presence of I^- for 2 min. before ion substitution) and are representative of results obtained under each condition. […]

The next assay concerns ΔF508-CFTR (IBE-1 cells). In words: SPQ halide efflux assay, cAMP-stimulated Cl- channel activity, IBE-1 cells. In kind it is cell-based, human. The note with it: DSG 5 to 50 μg/ml, 72 h. The procedure: as §1, with “Forskolin (20 μM) and 3-isobutyl-1-methyl-xanthine (IBMX) (100 μM) were added 5 min after the anion substitution to increase intracellular levels of cAMP.” left out
as §2

“Also recorded” adds a separate entry of the source.

Consider `N=C(N)NCCCCCCC(=O)NC(O)C(=O)NCCCCNCCCN` (stereo not drawn) [DSG, deoxyspergualin], for which the “response in mock transfected cells” value in assay [1] (C127-mock cells, DSG treated) is on record as “No response was observed”. In addition, the “cells generating a measurable response” value in assay [1] (C127-ΔF508-low cells, SPQ, average of 5 experiments) is reported as “Approximately 17%”. In addition, in assay [1] (C127-ΔF508-low cells, DSG 10-100 μg/ml, sodium butyrate 5 mM 24 h, spermidine 5 μg/ml 72 h), the “cAMP-stimulated change in SPQ fluorescence / Cl- channel activity, in words” value was “marginal; also recorded: resulted in the appearance of functional cAMP-stimulated CFTR Cl^- channel activity at the cell surface; also recorded: gave a rapid change in fluorescence following stimulation with forskolin; also recorded: More optimal responses were observed in cells that were treated with lower concentrations of DSG compared to higher concentrations of DSG; also recorded: restored cAMP-stimulated anion efflux albeit to a lesser extent than was observed with sodium butyrate treatment; also recorded: less than that obtained with sodium butyrate”. The “cAMP-stimulated Cl- channel activity, in words” value with ΔF508-CFTR (CFT1 cells) is “very similar results”; in the assay with ΔF508-CFTR (IBE-1 cells) it was “concentration-dependent, with higher concentrations of DSG giving rise to greater transport rates and higher numbers of positively-responding cells; also recorded: comparable to that observed when these cells were cultured at a reduced temperature”. In the assay on ΔF508-CFTR (IBE-1 cells) (FIG. 9B), the “cells exhibiting measurable cAMP-stimulated Cl- channel activity” value is given as “up to 20%”.
